Experimental data from PubChem BioAssay (NCI).
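Protocol summary: plate cells (96-well), add compound at 5 concentrations, incubate 48 h, interpolate endpoints linearly. GI50 = concentration required for 50% inhibition of growth. TGI denotes the concentration required for complete inhibition of growth.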

How the values were obtained:
Test in all cases: NCI tumour cell line growth inhibition, 48 h
MALME-3M melanoma = test system: MALME-3M melanoma
IGROV1 ovarian = test system: IGROV1 ovarian
MDA-MB-231 breast = test system: MDA-MB-231 breast
MCF7 breast = test system: MCF7 breast
SK-OV-3 ovarian = test system: SK-OV-3 ovarian
SK-MEL-2 melanoma = test system: SK-MEL-2 melanoma
CAKI-1 renal = test system: CAKI-1 renal
K-562 leukemia = test system: K-562 leukemia
MOLT-4 leukemia = test system: MOLT-4 leukemia
OVCAR-3 ovarian = test system: OVCAR-3 ovarian

| SMILES | GI50 (MALME-3M melanoma) [µM] | TGI (MALME-3M melanoma) [µM] | GI50 (IGROV1 ovarian) [µM] | TGI (IGROV1 ovarian) [µM] | GI50 (MDA-MB-231 breast) [µM] | TGI (MDA-MB-231 breast) [µM] | GI50 (MCF7 breast) [µM] | TGI (MCF7 breast) [µM] | GI50 (SK-OV-3 ovarian) [µM] | TGI (SK-OV-3 ovarian) [µM] | GI50 (SK-MEL-2 melanoma) [µM] | TGI (SK-MEL-2 melanoma) [µM] | GI50 (CAKI-1 renal) [µM] | TGI (CAKI-1 renal) [µM] | GI50 (K-562 leukemia) [µM] | TGI (K-562 leukemia) [µM] | GI50 (MOLT-4 leukemia) [µM] | TGI (MOLT-4 leukemia) [µM] | GI50 (OVCAR-3 ovarian) [µM] | TGI (OVCAR-3 ovarian) [µM] |
| --- | --- | --- | --- | --- | --- | --- | --- | --- | --- | --- | --- | --- | --- | --- | --- | --- | --- | --- | --- | --- |
| COc1cc2ncn(-c3cc(OCc4ccccc4S(C)(=O)=O)c(C#N)s3)c2cc1OC | > 25 | > 25 | > 25 | > 25 | > 25 | > 25 | > 25 | > 25 | > 16.1 | > 25 | > 23.4 | > 25 | > 25 | > 25 | > 25 | > 25 | > 25 | > 25 | > 25 | > 25 |
| O=C1OCC2=C1C(c1cccc(C(F)(F)F)c1)c1cc3c(cc1N2CCO)CCC3 (stereo unspecified) | 0.714 | 10.5 | 0.312 | 8.25 | 0.223 | 6.76 | 0.17 | 7.65 | 0.179 | 8.64 | 0.34 | 10.6 | 0.174 | 7.46 | 0.174 | 28.1 | 0.27 | 15.5 | 0.161 | 2.21 |
| COc1ccc2[nH]cc(-c3nc(-c4c[nH]c5ccncc45)cs3)c2c1 | 2 | 3.58 | 1.93 | 3.9 | 1.65 | 3.25 | 1.66 | 3.4 | 13.7 | 26.6 | 2.05 | 3.91 | 2.86 | 9.13 | 1.72 | 4.7 | – | – | 2.18 | 4.07 |
| Cc1cc(C)c2c(N)c3cccc(C)c3nc2n1 | 1.93 | 4.38 | 3.17 | > 100 | 1.56 | 6.27 | 2.14 | 10.3 | 2.11 | 9.36 | 2.03 | 4.97 | 2.25 | 8.35 | 2.36 | 8.71 | 2.17 | 10 | 2.57 | 5.46 |
| Cc1ccc(/C(=C/C=C(C#N)C#N)Sc2ccccn2)cc1 | 4.09 | 17.3 | 4.79 | 17.4 | 2.3 | 7.45 | 4.62 | 36 | 19.6 | 65.8 | 7.15 | 35.6 | 5.62 | 11.8 | 1.55 | 10.8 | 2.01 | 6.32 | 2.09 | 8.25 |
| NC1=NC(c2ccc(F)cc2)C2=C(N1)c1ccc3ccccc3c1OCC2 (stereo unspecified) | 18.5 | > 100 | > 100 | > 100 | 47.4 | > 100 | 4.69 | > 100 | 26.8 | > 100 | > 100 | > 100 | 12.3 | 70.6 | 3.1 | > 100 | – | – | 2.73 | > 100 |
